Test [1] has as its target FcγRI receptor-mediated degranulation. The test is described as follows: FcγRI-mediated degranulation (activation with anti-human IgG Fab fragment). To be noted: cells not primed with IgE, activated with rabbit anti-human IgG Fab fragment.
The subject of test [2] is basophils in whole human peripheral blood. The test is described as follows: Basophil ionomycin activation: histamine release assay. In kind it is cell-based. On the procedure:
Assays for ionomycin-induced basophil cell degranulation were carried out as described for the Basophil IgE or Dustmite Activation Assay (Section 6.4.6, supra), with the exception that following incubation with compound, cells were stimulated with 20 μl of 2 μM ionomycin.

Test [3] relates to IgE-induced degranulation of tissue mast cells. The experiment in a line: Mouse model of passive cutaneous anaphylaxis (PCA). It counts as in vivo. To be noted: for inhibition of the PCA response: oral route in a PEG-based formulation, data not shown. On the procedure: This model provides a direct measure of IgE-induced degranulation of tissue mast cells. In this model, IgE primed animals are exposed to an allergen challenge, and the change in permeability of dermal vasculature that results from histamine release from mast cells is measured by change in the amount of dye leakage into surrounding tissue. Inhibition of mediator release by compounds that modulate mast cell degranulation is easily measured by extracting the dye from the tissue.
In the PCA assay mice are passively sensitized by intradermal injection with anti-dinitrophenol (DNP) IgE antibodies (Day −1). At predetermined times animals are treated with the test agent (Day 0). The modulatory effect of the agent on cutaneous mast cell degranulation is measured following intravenous injection of DNP conjugated to human serum albumin (HSA-DNP), together with Evans blue dye. The resulting cross-linking of the IgE receptor and subsequent mast cell degranulation-induced increase in vascular permeability is determined by measuring the amount of dye extravasation into the tissue. Dye is extracted from the tissue by formamide, and the absorbance of this extract is read at 620 nm.

Test [4] concerns ionophore-induced degranulation of mast and/or basophil cells. The test is described as follows: Ionophore (ionomycin or A23187)-induced degranulation counter screen. In kind it is cell-based. Conditions: Mus musculus; high density BMMC, ionomycin activation, hexosaminidase release; read-out: BMMC Ionomycin Hexos. IC50. The procedure, abridged: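 Mast and/or basophil cell degranulation assays run as for the IgE-triggered formats, but cells are stimulated with calcium ionophore ionomycin or A23187 instead of anti-IgE or allergen. Ionophore bypasses early FcεRI/FcγRI signalling, so the IC50 serves as a counter screen.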
(Counterscreens check selectivity or assay interference.)

For test [5], the system named is cultured human mast cells (CHMC). The test is described as follows: CHMC low cell density IgE activation: tryptase and LTC4 assays. It counts as cell-based. Conditions: Homo sapiens, Mast cell, Low Density CHMC, anti-IgE activation. In short, it runs like this: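 Degranulation measured after 30 min anti-IgE challenge at 37° C of CHMC plated at 1000-1500 cells/well following 1 h preincubation. Readouts: LTC4 by ELISA on donor-specific diluted supernatants, and tryptase activity from a 30 min room-temperature substrate reaction.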

Test [6] concerns bone marrow derived mast cells (BMMC). The test is described as follows: BMMC high cell density IgE activation: degranulation (hexosiminidase, histamine), leukotriene (LTC4) and cytokine (TNFalpha, IL-6) assays. It counts as cell-based. To be noted: Mus musculus, anti-IgE activation, hexosaminidase release, read-out: BMMC anti-IgE hexos IC50.
The test system of test [7] is basophils in whole human peripheral blood. The experiment in a line: Basophil IgE activation: histamine release assay. It counts as cell-based. Conditions: Homo sapiens, anti-IgE activation. On the procedure:
The basophil activation assay was carried out using whole human peripheral blood from donors allergic to dust mites with the majority of the red blood cells removed by dextran sedimentation. Human peripheral blood was mixed 1:1 with 3% dextran T500 and RBCs were allowed to settle for 20-25 min. The upper fraction was diluted with 3 volumes of D-PBS and cells were spun down for 10 min at 1500 rpm, RT. Supernatant was aspirated and cells were washed in an equal volume MT-buffer. Finally, cells were resuspended in MT-buffer containing 0.5% DMSO in the original blood volume. 80 uL cells were mixed with 20 uL compound in the presence of 0.5% DMSO, in triplicate, in a V-bottom 96-well tissue culture plate. A dose range of 8 compound concentrations was tested resulting in a 10-point dose response curve including maximum (stimulated) and minimum (unstimulated) response. […] The cells were stimulated for 30 minutes at 37° C., 5% CO2. The plate was spun for 10 min at 1500 rpm at room temperature and 80 uL the supernatant was harvested for histamine content analysis using the histamine ELISA kit supplied by Immunotech. The ELISA was performed according to supplier's instructions.

Test [8] has as its system cultured human mast cells (CHMC). The experiment in a line: CHMC low cell density ionomycin activation: tryptase assay. It counts as cell-based. To be noted: Homo sapiens, Mast cell, Low Density CHMC, ionomycin activation, hexosaminidase readout; read-out: CHMC Ionomycin Hexos.
In another test the test system is Jurkat cells. The experiment in a line: Jurkat (T-cell) toxicity, light scatter. In kind it is cell-based. To be noted: Homo sapiens, 18-24 hr, flow cytometric light scatter, read-out: Toxicity Jurkat Light Scat. On the procedure: Dilute Jurkat cells to 2×10^5 cells/ml in complete RPMI (10% heat-inactivated fetal bovine serum) media and incubate at 37° C., 5% CO2 for 18 hours. Add 65 ul cells at 7.7×10^5 cells/ml to a 96-well V-bottom plate (TC-treated, Costar) containing 65 ul 2× compound (final vehicle concentration is 0.5% DMSO, 1.5% MeOH). Mix, incubate plates for 18-24 hr at 37° C., 5% CO2. Toxicity was assessed by flow cytometric analysis of cellular light scatter

The subject of another test is B-cell line BJAB. The experiment in a line: BJAB (B-cell) toxicity, light scatter. To be noted: Homo sapiens; BJAB B-cells, flow cytometric light scatter; read-out: Toxicity BJAB Light Scat. It counts as cell-based. On the procedure:
The B-cell line BJAB was cultured in log phase in RPMI1640+10% heat-inactivated fetal bovine serum, lx L-glutamine, lx penicillin, lx […] and 1× beta-mercaptoethanol at 37° C., 5% CO2. First, BJABs were harvested, spun and resuspended in culture medium to a concentration of 7.7×10^5 cells/mL. 65 uL cells were mixed with 65 uL compound, in duplicate and in the presence of 0.1% DMSO in a V-bottomed 96-well tissue culture plate. Cells were incubated with compound at various dilutions at 37° C., 5% CO2. Toxicity was assessed by flow cytometric analysis of cellular light scatter.
For orientation: Flow cytometry measures light scatter and fluorescence of single cells or particles in a stream.

The results in this text go back to US10828301B2, “2,4-pyrimidinediamine compounds and their uses” (Rigel Pharmaceuticals, Inc, priority 2002, dated 2020).

Turning to `O=C1Nc2cc(Nc3ncc(F)c(Nc4ccc5c(c4)NC(=O)C(F)(F)O5)n3)ccc2OC1(F)F` [Compound R940352, N2,N4-[(2,2-Difluoro-4H-benzo[1,4]oxazin-3-one)-6-yl]-5-fluoro-2,4-pyrimidinediamine], the “inhibition of FcγRI-mediated degranulation” value in [1] is “inhibit FcγRI-mediated degranulation”.

With `CNC(=O)COc1cccc(Nc2ncc(F)c(Nc3ccc4c(c3)OCCO4)n2)c1` [Compound R926495, N4-(3,4-Ethylenedioxyphenyl)-5-fluoro-N2-[3-(N-methylamino)carbonylmethyleneoxyphenyl]-2,4-pyrimidinediamine], the IC50 in test [2] was above 10 µM. Moreover, the “inhibition of the PCA response” value in [3] was “able to inhibit the PCA response”.

With `CNC(=O)COc1cccc(Nc2ncc(F)c(Nc3ccc4c(c3)NC(=O)C(F)(F)O4)n2)c1` [Compound R921303, N4-[(2,2-Difluoro-4H-benzo[1,4]oxazin-3-one)-6-yl]-5-fluoro-N2-[3-(methylaminocarbonylmethyleneoxy)phenyl]-2,4-pyrimidinediamine], the “inhibition of FcγRI-mediated degranulation” value in test [1] is “inhibit FcγRI-mediated degranulation”.

Take `CNC(=O)COc1cccc(Nc2ncc(F)c(Nc3cccc(O)c3)n2)c1` [Compound R926508, 5-Fluoro-N4-(3-hydroxyphenyl)-N2-[3-(N-methylamino)carbonylmethyleneoxyphenyl]-2,4-pyrimidinediamine]: the IC50 in [2] is above 10 µM. Moreover, the “inhibition of the PCA response” value in [3] is recorded as “able to inhibit the PCA response”.

With `CCOc1ccc(Nc2nc(Nc3ccc(OC)c(OC)c3)ncc2F)cc1` [Compound R926108, N2-(3,4-Dimethoxyphenyl)-N4-(4-ethoxyphenyl)-5-fluoro-2,4-pyrimidinediamine], the IC50 in [4] is above 10 µM; in test [5] (LTC4 readout, read-out: CHMC anti-IgE LTC4), 0.76 µM; in [5] (hexosaminidase readout, read-out: CHMC anti-IgE Hexos.) it was 0.787 µM; in [6] it was 0.9 µM; in [7] it was 0.95 µM; in test [8], 6.4 µM. The IC50 (in test [2] (Homo sapiens); with Jurkat cells; in the test on B-cell line BJAB) was above 10 µM throughout.

Take `CNC(=O)COc1cccc(Nc2ncc(F)c(Nc3ccc4cc[nH]c4c3)n2)c1` [Compound R926745, 5-Fluoro-N4-[(1H)-indol-6-yl]-N2-[3-(N-methylamino)carbonylmethyleneoxyphenyl]-2,4-pyrimidinediamine]: the “inhibition of the PCA response” value in [3] is on record as “able to inhibit the PCA response”.

In the case of `CN(C)CCOC(c1ccccc1)c1ccccc1` [diphenhydramine, reference compound], the “inhibition of the PCA response / FcεR-mediated vascular leakage (in words)” value in test [3] (mouse, in vivo) was “inhibit the PCA response”.

With `CNC(=O)COc1cccc(Nc2ncc(F)c(Nc3ccc(OC(F)(F)F)c(Cl)c3)n2)c1` [Compound R920410, N4-(3-Chloro-4-trifluoromethoxyphenyl)-5-fluoro-N2-[3-(N-methylamino)carbonylmethyleneoxyphenyl]-2,4-pyrimidinediamine], the “inhibition of FcγRI-mediated degranulation” value in test [1] is given as “inhibit FcγRI-mediated degranulation”.

Regarding `CNC(=O)COc1cccc(Nc2ncc(F)c(Nc3ccc4c(n3)NC(=O)C(C)(C)O4)n2)c1` [Compound R940347, N4-[(2,2-Dimethyl-4H-5-pyrido[1,4]oxazin-3-one)-6-yl]-5-fluoro-N2-[3-(methylaminocarbonylmethyleneoxy)phenyl]-2,4-pyrimidinediamine], the “inhibition of FcγRI-mediated degranulation” value in test [1] was “inhibit FcγRI-mediated degranulation”.

`Cc1cc(Nc2ncc(F)c(Nc3ccc4c(c3)NC(=O)C(F)(F)O4)n2)cc(Cl)c1O` [Compound R926971]: the “inhibition of FcγRI-mediated degranulation” value in test [1] is “inhibit FcγRI-mediated degranulation”.
